Assay results taken from ChEMBL document CHEMBL1201862, “PubChem BioAssay data set” (2004).
Activity calls are given as the source filed them.

Experiments:
[1] = tested on: INS1; assay: beta cell apoptosis inhibitors, cytokine rescue, dose response, luminescence, retest (AID 449756); type: functional, cell-based; details: Rattus norvegicus;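 also: cell death triggered by IL-1 beta plus TNF-alpha plus IFN-gamma mixture; protective hits raise ATP signal compared with cytokine alone wells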
[2] = target: T1, Calpain-2 catalytic subunit (Sus scrofa, UniProt P43367); assay: pig calpain II inhibitor potency, dose response, biochemical, fluorogenic peptide substrate (AID 1420); type: functional
T1 sequence (P43367 whole entry): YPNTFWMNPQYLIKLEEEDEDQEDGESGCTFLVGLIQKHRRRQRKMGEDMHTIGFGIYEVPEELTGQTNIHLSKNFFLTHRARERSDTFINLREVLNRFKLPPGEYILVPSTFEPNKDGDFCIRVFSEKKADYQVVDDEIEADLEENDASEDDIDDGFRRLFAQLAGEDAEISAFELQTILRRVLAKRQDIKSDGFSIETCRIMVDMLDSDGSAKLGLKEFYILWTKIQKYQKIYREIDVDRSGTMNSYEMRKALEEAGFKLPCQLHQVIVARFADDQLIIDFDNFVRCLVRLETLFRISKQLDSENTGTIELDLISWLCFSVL

[3] = target: T2, Replicative DNA helicase DnaB (Mycobacterium tuberculosis, UniProt P9WMR3); assay: DnaB intein splicing inhibitors, dose response, biochemical, cell-free fluorescence (AID 449749); type: functional
T2 sequence (P9WMR3 whole entry): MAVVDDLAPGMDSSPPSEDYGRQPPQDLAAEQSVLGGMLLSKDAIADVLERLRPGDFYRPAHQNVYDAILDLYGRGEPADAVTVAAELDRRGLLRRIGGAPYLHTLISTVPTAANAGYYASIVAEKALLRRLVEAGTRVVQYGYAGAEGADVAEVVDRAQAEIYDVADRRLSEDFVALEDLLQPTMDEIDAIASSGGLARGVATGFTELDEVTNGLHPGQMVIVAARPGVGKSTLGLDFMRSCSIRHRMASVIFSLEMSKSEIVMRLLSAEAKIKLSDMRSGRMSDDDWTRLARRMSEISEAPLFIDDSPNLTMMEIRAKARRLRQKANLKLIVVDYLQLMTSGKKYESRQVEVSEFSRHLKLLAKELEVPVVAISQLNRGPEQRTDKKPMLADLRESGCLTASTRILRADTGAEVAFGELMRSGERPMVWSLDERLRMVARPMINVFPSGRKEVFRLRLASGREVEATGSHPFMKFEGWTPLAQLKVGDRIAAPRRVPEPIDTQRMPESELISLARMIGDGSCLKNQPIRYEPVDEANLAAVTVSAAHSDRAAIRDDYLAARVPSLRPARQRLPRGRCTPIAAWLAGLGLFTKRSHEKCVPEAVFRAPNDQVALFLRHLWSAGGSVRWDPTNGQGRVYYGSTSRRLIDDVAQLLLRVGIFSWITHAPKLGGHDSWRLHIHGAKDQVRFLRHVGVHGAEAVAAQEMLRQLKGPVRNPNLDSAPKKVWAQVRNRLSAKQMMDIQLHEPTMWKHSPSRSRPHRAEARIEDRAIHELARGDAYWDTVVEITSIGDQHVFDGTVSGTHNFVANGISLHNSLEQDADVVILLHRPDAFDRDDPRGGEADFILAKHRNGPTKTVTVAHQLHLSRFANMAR

[4] = tested on: Streptococcus sp. 'group A'; assay: growth inhibition of control SK(-) GAS strain, dose response, counter-screen for streptokinase expression inhibitor project, luminescence, kanamycin, BacTiterGlo, confirmation (AID 1900); type: functional, organism-based
[5] = target: T3, Streptokinase A (Streptococcus pyogenes serotype M1, UniProt P10520); assay: S. pyogenes streptokinase expression inhibitors, potency, dose response, plasminogen activation absorbance, OD405 (AID 1914); type: functional, Streptococcus pyogenes M1 GAS;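 also: secreted streptokinase activity via plasminogen activation per viability signal from cell pellet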
T3 sequence (P10520 whole entry): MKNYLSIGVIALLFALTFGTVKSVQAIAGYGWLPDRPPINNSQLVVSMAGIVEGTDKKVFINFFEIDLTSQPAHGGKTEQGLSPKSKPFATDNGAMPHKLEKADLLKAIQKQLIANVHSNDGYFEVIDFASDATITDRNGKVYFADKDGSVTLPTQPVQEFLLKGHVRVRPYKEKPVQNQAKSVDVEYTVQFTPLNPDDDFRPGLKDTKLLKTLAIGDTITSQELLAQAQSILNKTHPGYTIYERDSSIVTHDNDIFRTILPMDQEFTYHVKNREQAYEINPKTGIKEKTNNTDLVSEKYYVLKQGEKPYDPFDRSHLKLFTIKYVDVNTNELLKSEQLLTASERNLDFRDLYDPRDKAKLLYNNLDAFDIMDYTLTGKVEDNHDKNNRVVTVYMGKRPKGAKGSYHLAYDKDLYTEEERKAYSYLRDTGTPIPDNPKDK

[6] = tested on: Streptococcus; assay: Group A Streptococcus viability loss, dose response, counter-screen for streptokinase expression inhibitor project, luminescence, BacTiterGlo (AID 1915); type: functional, organism-based;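 also: potency for reduction of bacterial viability or growth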
[7] = target: T4, Caspase-3 (Homo sapiens, UniProt P42574); type: functional;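 also: Dose-response selectivity test against caspase-3 for candidate inhibitors of sentrin-specific proteases (SENPs)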
T4 sequence (P42574 whole entry): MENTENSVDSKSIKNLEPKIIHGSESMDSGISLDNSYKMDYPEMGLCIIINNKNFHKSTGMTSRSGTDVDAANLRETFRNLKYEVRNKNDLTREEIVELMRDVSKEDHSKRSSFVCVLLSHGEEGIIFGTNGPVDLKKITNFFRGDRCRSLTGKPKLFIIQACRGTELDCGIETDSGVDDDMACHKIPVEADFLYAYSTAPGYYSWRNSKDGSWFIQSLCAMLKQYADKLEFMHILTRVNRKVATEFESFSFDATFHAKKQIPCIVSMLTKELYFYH

[8] = target: T5, Tyrosyl-DNA phosphodiesterase 2 (Homo sapiens, UniProt O95551); assay: human TDP2 enzyme inhibitors, dose response, biochemical, epi absorbance, IC50 (AID 743297)
T5 sequence (O95551 whole entry): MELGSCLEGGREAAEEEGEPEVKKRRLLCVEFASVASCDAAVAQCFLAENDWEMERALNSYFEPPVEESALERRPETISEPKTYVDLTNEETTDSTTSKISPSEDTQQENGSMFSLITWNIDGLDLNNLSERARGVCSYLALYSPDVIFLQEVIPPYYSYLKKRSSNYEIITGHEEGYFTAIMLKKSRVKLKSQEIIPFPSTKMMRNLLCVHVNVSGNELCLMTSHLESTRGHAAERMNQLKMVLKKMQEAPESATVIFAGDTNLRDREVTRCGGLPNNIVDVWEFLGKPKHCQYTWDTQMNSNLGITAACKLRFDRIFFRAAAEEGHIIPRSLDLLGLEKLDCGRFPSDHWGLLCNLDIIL

Structure (SMILES) | AC50 [1] | IC50 [2] | AC50 [3] | EC50 [4] | EC50 [5] | EC50 [6] | IC50 [7] | IC50 [8]
Cn1nc(-c2ccc(Cl)cc2)nc2c(=O)n(C)c(=O)nc1-2 | 0.441 µM (active) | 24.7 µM (not active) | 0.0409 µM (active) | – | – | – | – | –
COc1ccc(C(NC(=O)C(C)C)c2ccc3cccnc3c2O)cc1 (stereo unspecified) | 0.65 µM (active) | – | – | 7.99 µM (active) | > 150 µM (not active) | > 150 µM (not active) | – | –
O=C(Cc1ccc([N+](=O)[O-])cc1)N/N=C/c1ccc([N+](=O)[O-])o1 | – | – | – | 11.9 µM (active) | 37 µM (active) | 21.7 µM (active) | – | –
SC1=Nc2ccccc2C1 | – | 14.9 µM (not active) | 1.77 µM (active) | – | – | – | – | –
NS(=O)(=O)c1ccc(NC(=O)COC(=O)c2ccc([N+](=O)[O-])s2)cc1 | – | – | – | – | – | – | 10.2 µM (active) | 32.2 µM (inactive)
CCCCNc1cc(NC(C)=O)cc2cc(OC)c(OC)cc12 | – | – | – | – | – | – | 20.7 µM (active) | 87.5 µM (inactive)
